From patent US8173797B2 (Cornell Research Foundation, Inc., priority 2004, dated 2012)

Assay: solubility in aprotic NMR solvents
Assay type: physicochemical

For `CC1OC(OC2C(O)C(C)OC(OC3C(COS(=O)(=O)O)OC(n4cnc5c(=O)[nH]c(N)nc54)C3O)C2O)C(O)C(O)C1O` (stereo not shown) [Compound 2], the solubility was “quite insoluble”.
